These results are taken from ChEMBL document CHEMBL1201862, “PubChem BioAssay data set” (2004).

Data set [1] can be described thus: inhibitors of intracellular T. cruzi replication, confirmation, NIH3T3 host cells, beta-gal luminescence (AID 2044).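 Further: intracellular parasites grown in NIH/3T3 mouse fibroblasts as host cells; luminescent beta-galactosidase reporter signal from transgenic T. cruzi replicating inside host cells; inhibitors lower the luminescence signal.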 The data set is classed as functional, cell-based.
Data set [2] concerns the target T1, Short transient receptor potential channel 4 (Mus musculus, UniProt Q9QUQ5).
T1 sequence (Q9QUQ5 whole entry): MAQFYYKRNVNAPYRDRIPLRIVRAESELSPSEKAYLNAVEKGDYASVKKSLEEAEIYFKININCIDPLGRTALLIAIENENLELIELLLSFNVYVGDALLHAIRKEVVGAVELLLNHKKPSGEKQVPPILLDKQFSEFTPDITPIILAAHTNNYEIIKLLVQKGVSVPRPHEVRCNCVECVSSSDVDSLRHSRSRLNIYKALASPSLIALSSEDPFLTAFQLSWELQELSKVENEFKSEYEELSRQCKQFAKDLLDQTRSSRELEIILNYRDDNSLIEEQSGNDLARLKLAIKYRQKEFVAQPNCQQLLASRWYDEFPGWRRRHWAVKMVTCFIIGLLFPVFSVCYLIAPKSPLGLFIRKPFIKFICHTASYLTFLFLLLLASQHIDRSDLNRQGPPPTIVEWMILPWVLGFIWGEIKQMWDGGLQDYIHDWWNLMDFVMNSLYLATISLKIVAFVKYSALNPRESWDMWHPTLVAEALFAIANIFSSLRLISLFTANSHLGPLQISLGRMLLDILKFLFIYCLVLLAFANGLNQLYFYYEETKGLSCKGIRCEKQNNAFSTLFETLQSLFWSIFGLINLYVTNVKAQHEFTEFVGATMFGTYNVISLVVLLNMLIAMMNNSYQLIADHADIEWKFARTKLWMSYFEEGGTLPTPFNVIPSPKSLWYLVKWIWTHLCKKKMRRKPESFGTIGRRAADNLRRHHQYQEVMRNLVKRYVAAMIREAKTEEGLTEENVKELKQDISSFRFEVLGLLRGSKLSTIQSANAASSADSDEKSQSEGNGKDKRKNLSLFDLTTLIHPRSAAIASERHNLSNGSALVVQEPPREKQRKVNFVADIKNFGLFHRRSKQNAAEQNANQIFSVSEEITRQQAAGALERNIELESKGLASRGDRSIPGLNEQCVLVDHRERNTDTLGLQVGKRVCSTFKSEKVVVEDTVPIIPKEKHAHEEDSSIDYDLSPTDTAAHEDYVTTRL
Description: mouse TRPC4 channel activators, dose response, cell-based, HEK293 TRPC4/mu-opioid, Fluo-4 calcium (AID 434937). The data set is classed as functional.

Data set [3] in a line: cytotoxicity toward NIH3T3 fibroblasts, dose response, counter-screen, cell-based, ATP luminescence, mouse fibroblasts (AID 2010).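 Further: cells exposed to compound for about 90 hours before reading.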 The data set is classed as functional. (The purpose of a counterscreen is to sort out artefacts and off-target activity.)
Data set [4] concerns the target Prothrombin (Homo sapiens, UniProt P00734). Description: Thrombin 1536 HTS Dose Response Confirmation. [Related pubchem assays: 1046 (Thrombin 1536 HTS; hits were confirmed in this assay)]. The data set is classed as functional.
Data set [5] addresses Cytochrome P450 2C9 (Homo sapiens, UniProt P11712).
Data set [6] addresses T2, Carboxy-terminal domain RNA polymerase II polypeptide A small phosphatase 1 (Homo sapiens, UniProt Q9GZU7).
T2 sequence (Q9GZU7 whole entry): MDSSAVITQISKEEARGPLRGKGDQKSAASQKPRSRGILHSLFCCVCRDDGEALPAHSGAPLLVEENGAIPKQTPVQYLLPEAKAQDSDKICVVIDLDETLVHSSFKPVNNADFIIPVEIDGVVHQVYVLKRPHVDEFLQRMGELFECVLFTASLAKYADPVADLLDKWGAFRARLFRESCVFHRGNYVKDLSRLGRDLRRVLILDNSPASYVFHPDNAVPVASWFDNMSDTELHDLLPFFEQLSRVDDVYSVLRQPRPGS
Description: inhibitors of CTDSP1, concentration-response testing, biochemical assay, absorbance-based, actives from ultra-high-throughput screening (AID 540297). The data set is classed as functional.

Data set [7] concerns the target T1, Short transient receptor potential channel 4. Description: mouse TRPC4 channel inhibitors, dose response, cell-based, HEK293 TRPC4/mu-opioid, Fluo-4 calcium (AID 434942).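 Further: potency of inhibitors blocking the TRPC4 calcium response.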 The data set is classed as functional.
The target in data set [8] is Genome polyprotein (dengue virus type 2, UniProt P29990). As to the kind of experiment: Dengue-2 NS5 methyltransferase inhibitors, primary screen, biochemical, confirmation dose response (AID 588689). The data set is classed as functional.
A short description of data set [9]: P. falciparum Dd2 growth inhibitors, dose response, SYBR Green, dry powder samples (AID 1159566).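 Further: potency for growth inhibition with lower SYBR green DNA signal.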 The data set is classed as functional, cell-based.
Data set [10] can be described thus: P. falciparum Dd2 growth inhibitors, dose response, SYBR Green, cherry-picked samples (AID 1159567). The data set is classed as functional, cell-based.
Data set [11] in a line: P. falciparum 3D7-ScDHODH growth inhibitors, dose response, SYBR Green, dry powder samples (AID 1159570).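 Further: parasite growth measured after 72 hours of compound exposure.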 The data set is classed as functional, cell-based.
Data set [12] is described as follows: P. falciparum ATP4 D1247Y mutant growth inhibitors, dose response, NITD609-resistant line, SYBR Green, dry powder (AID 1159571).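 Further: parasites synchronized at ring stage by sorbitol before testing.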 The data set is classed as functional, cell-based.
Data set [13] in a line: Shn3 3'UTR reporter inhibitors, dose response, cell-based, Clone20 osteoblasts, firefly luciferase, cherry-picked (AID 624132).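 Further: firefly luciferase luminescence from reporter carrying the Shn3 3'UTR in osteoblasts.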 The data set is classed as functional.
Data set [14] is described as follows: HepG2 cell cytotoxicity, dose response, cytotoxicity control for Shn3 inhibitor project, CellTiter-Glo, cherry-picked (AID 624134). The data set is classed as functional, cell-based.
Data set [15] addresses Cytochrome P450 2C19 (Homo sapiens, UniProt P33261). Description: Cytochrome panel assay with activity outcomes. Panel member name: p450-cyp2c19 Compounds with AC50 equal or less than 10 uM are considered active. The data set is classed as functional. To be noted: read-out: AC50.
Data set [16] in a line: cytotoxicity in KRAS-transformed pancreatic duct cells, primary screen, cell-based, fluorescence, HTS (AID 431).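 Further: cell line used: HPDE-C7K.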 The data set is classed as functional. Conditions: Homo sapiens.
Data set [17] is described as follows: cytotoxicity in HPDE-C7 cells, cell-based, fluorescence, HTS (AID 430). The data set is classed as functional. To be noted: Homo sapiens.
Data set [18] concerns the target Cytochrome P450 3A4 (Homo sapiens, UniProt P08684).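 Further: CYP3A4 tested as one member of a cytochrome P450 panel screen.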
A short description of data set [19]: NIH:OVCAR-3 ovarian cancer cell cytotoxicity, dose response, PAX8 inhibitor project, plate reader, dry powder samples (AID 743044). The data set is classed as functional, cell-based.
Data set [20] in a line: cytotoxicity in OVCAR8 ovarian cancer cells, dose response, PAX8 project, cell-based, plate reader, dry powder samples (AID 743197). To be noted: OVCAR-8. The data set is classed as functional.
The target of data set [21] is Paired box protein Pax-8 (Homo sapiens, UniProt Q06710). Description: inhibitors of PAX8-driven TPO luciferase reporter, dose response, RMG-I cells, cherry-pick (AID 687027).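 Further: luciferase reporter driven by Pax8 target thyroperoxidase promoter measured by SteadyGlo luminescence.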 The data set is classed as functional, cell-based.

Calls of active or inactive are those of the source. Some results are limits rather than exact numbers.

Sequence of Cytochrome P450 2C9 (P11712 whole entry, the tested form may be a part): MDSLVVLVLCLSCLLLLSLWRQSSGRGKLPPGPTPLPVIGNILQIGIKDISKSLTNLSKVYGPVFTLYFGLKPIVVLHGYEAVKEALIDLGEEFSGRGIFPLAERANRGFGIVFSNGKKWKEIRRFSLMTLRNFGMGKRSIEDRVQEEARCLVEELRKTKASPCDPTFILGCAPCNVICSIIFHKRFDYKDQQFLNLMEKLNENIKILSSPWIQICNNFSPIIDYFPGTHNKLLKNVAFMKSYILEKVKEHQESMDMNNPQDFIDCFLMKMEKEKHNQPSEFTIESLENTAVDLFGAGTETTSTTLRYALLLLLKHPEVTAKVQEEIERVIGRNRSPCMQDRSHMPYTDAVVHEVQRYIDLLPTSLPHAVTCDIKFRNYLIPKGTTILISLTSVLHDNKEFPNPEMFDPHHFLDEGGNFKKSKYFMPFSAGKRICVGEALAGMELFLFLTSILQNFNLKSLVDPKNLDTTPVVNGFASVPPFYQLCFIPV
Sequence of Cytochrome P450 2C19 (P33261 whole entry): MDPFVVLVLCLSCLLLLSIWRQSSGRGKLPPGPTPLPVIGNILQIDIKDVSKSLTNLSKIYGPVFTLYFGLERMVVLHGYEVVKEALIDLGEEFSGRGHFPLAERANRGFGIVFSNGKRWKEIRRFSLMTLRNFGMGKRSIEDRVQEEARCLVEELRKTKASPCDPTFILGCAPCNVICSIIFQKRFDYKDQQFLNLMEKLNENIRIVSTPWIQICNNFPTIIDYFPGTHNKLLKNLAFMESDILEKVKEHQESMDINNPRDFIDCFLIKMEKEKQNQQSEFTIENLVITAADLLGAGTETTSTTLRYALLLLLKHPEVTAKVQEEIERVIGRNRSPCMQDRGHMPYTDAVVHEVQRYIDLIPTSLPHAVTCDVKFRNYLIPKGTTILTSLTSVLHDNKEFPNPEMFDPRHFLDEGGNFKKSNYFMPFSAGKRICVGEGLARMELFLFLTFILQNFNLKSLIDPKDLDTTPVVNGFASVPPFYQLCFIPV
Sequence of Paired box protein Pax-8 (Q06710 whole entry): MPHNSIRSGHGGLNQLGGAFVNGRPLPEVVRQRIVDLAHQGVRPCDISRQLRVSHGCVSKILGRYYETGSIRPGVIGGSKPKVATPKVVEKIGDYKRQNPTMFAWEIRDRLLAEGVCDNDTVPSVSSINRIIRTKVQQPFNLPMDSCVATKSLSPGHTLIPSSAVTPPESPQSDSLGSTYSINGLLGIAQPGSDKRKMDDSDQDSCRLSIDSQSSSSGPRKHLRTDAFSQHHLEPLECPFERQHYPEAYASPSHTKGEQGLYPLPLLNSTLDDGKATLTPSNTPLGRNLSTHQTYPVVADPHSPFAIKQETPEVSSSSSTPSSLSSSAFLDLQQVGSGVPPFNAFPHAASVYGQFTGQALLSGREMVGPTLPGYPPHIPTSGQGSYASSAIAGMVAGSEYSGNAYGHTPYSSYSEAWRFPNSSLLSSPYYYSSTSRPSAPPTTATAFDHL
Sequence of Cytochrome P450 3A4 (P08684 whole entry): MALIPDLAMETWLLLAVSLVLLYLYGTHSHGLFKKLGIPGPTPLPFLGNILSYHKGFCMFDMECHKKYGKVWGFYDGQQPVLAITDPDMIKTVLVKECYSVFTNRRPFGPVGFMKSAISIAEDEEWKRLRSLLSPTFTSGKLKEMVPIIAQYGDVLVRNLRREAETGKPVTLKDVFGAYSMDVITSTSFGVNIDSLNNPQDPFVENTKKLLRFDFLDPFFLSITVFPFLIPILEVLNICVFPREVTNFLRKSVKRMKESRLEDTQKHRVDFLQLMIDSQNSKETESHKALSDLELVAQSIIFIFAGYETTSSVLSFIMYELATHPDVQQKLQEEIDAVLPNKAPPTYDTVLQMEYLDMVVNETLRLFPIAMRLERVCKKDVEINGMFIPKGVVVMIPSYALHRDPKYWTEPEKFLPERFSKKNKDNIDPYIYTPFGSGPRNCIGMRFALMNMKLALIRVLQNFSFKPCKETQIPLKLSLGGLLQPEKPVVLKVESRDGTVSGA
Sequence of Genome polyprotein (P29990 2492-3391 limits assumed): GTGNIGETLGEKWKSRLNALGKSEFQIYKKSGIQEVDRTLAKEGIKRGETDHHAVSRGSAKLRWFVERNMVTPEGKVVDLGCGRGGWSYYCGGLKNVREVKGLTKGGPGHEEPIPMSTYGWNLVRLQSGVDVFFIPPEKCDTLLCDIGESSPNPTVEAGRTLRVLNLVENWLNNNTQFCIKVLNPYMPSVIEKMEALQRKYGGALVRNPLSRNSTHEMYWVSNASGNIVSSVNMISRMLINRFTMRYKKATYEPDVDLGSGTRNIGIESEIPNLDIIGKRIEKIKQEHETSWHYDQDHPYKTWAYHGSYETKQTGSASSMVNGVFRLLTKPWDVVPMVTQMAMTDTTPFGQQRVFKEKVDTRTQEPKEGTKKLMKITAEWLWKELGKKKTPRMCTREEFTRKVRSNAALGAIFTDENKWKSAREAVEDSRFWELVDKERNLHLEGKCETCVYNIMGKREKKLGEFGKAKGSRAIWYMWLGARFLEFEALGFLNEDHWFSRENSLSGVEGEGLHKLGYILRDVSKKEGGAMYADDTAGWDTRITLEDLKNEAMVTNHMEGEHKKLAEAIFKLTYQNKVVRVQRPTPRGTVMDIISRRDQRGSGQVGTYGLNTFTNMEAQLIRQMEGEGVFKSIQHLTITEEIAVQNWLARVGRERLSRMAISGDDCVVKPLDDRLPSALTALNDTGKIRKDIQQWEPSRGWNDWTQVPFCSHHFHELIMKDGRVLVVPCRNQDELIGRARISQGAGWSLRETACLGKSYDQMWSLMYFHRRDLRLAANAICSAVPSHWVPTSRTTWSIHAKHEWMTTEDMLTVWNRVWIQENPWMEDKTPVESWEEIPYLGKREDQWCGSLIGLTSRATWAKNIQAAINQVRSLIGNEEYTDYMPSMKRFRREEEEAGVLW

Regarding `Cc1cc(OCCCn2ccnc2)cc(C)c1Cl`, the EC50 in [1] is 0.852 µM (active); in data set [2], 5.31 µM (active); in data set [3], > 60 µM (not active).
For the molecule `N/C(=N\S(=O)(=O)c1ccccc1)c1ccc([N+](=O)[O-])cc1`, the IC50 in data set [4] is listed as > 50 µM (not active).
For the molecule `CCCc1c(O)nc(SCCN(CC)CC)nc1O`, the EC50 in data set [2] was 1.68 µM (active).
Take `CN(C)c1oc(-c2ccccc2)nc1C#N`: the AC50 result in data set [5] is recorded as “inconclusive”.
For the molecule `CC(C)N1C(=O)CC2(CC[N+](C)(CCOC(=O)C(O)(c3ccccc3)c3ccccc3)CC2)C1=O` (stereo not drawn), in [6], the IC50 is 6.22 µM (active).
For `O=C(NCc1ccccc1)C1=C[C@H](c2ccc3c(c2)OCO3)C[C@H](OCc2ccc(CO)cc2)O1`, the values for the EC50 in data set [2] and in [7] were 4.73 µM (active) and 5.31 µM (active), respectively.
With `CCOc1cc(/C=N/NC2=NC(=O)C(CC(=O)O)S2)ccc1OCc1ccccc1Cl` (stereo not drawn), the 50% inhibitory concentration (IC50) in data set [8] is 51.7 µM (active); in [6], 4.28 µM (active).
Turning to `COc1ccc(NC(=O)N2CCC3(CC2)CN(C(=O)C2CCC2)[C@H](CO)c2c3c3ccc(OC)cc3n2C)cc1`, the AC50 in [9] is 0.0967 µM (active); in data set [10] it was 0.969 µM (active); in [11] it was 0.0417 µM (active); in data set [12], 0.0845 µM (active).
For `Cc1cc(C(=O)N/N=C/C=C/c2ccc(Br)cc2)[nH]n1`, the IC50 in data set [6] is 7.02 µM (active).
Regarding `C[C@@H]1CN([C@@H](C)CO)S(=O)(=O)c2ccc(C#CC3CCCC3)cc2O[C@H]1CN(C)C(=O)Cc1ccncc1`, the AC50 is 0.722 µM (active) in data set [9], 1.16 µM (active) in data set [10], 2.98 µM (active) in data set [11] and 1.72 µM (active) in data set [12].
`Cc1ccc(S(=O)(=O)NC(=O)N2CCC(C)CC2)cc1`: the IC50 in data set [4] was > 50 µM (not active).
As to `Cc1cc2ncn(S(=O)(=O)N3CCOCC3)c2cc1C`, the concentration for half-maximal inhibition (IC50) in [4] is given as > 50 µM (not active).
`O=C(c1cccs1)n1nc(-c2cccnc2)nc1NCc1ccco1`: the IC50 in [4] was 0.711 µM (active).
Regarding `Cc1ccc2nc(Cl)c(C3CC(c4cccs4)=NN3C(=O)CCCC(=O)O)cc2c1` (stereo not drawn), the IC50 in data set [6] was 11.1 µM (active).
As to `C[C@@H]1CCCCO[C@H](CN(C)Cc2ccccc2)[C@@H](C)CN([C@H](C)CO)C(=O)c2cc(NC(=O)c3ccccc3)ccc2O1`, the figures for the AC50 in data set [13] and in data set [14] were 31.2 µM (active) and > 70 µM (inactive), respectively.
For `O=C(NCCc1cccs1)C1CC(c2c(Cl)cccc2Cl)=NO1` (stereo not drawn), the results for the AC50 result in data set [5] and in [15] were “inconclusive” and 0.282 µM (inconclusive), respectively.
With `CCCC(=O)n1nc(-c2cccnc2)nc1N`, the IC50 in data set [4] was 0.986 µM (active). Besides, the AC50 in data set [15] is 31.6 µM (inconclusive).
For the molecule `CC(C)N1CCC2(CC1)N=C(c1ccc3c(c1)OCO3)CC(c1cc(Cl)ccc1O)N2` (stereo not drawn), the EC50 is 3.54 µM (active) in [16] and 4.25 µM (active) in data set [17].
Turning to `CCCN(CCC(=O)Nc1cc(OC)cc(OC)c1)CC1CC1`, the EC50 in data set [2] was 1.33 µM (active).
As to `COc1ccc(-c2nc3cnc(N4CCNCC4)nc3n(Cc3ccc(F)cc3)c2=O)cc1`, the AC50 result in data set [5] is “inconclusive”; in data set [18] it was 15.8 µM (inconclusive).
For the molecule `Cc1cc(Br)ccc1OCCn1ccnc1`, the EC50 in data set [2] is 3.35 µM (active).
Take `C[C@H]1CN([C@@H](C)CO)S(=O)(=O)c2ccc(C#Cc3ccncc3)cc2O[C@H]1CN(C)C(=O)C1CCCCC1`: the AC50 in data set [19] is 12.9 µM (active); in data set [20] it was 52.3 µM (active); in [21], 2.68 µM (active).
As to `NS(=O)(=O)c1cc2c(cc1Cl)N[C@@H](CC1CCCC1)NS2(=O)=O`, in data set [5], the AC50 entry is listed as “inconclusive”.
In the case of `CCOC(=O)N(O)c1ccc(C=Cc2ccccc2)cc1`, the IC50 in [6] was 6.05 µM (active).
Regarding `CC(=O)Nc1nonc1-n1nnc(C(=O)NCc2ccccc2)c1C`, the EC50 in data set [16] and in data set [17] was > 20 µM (not active) each time.

Broadly, the EC50 is the concentration that produces a half-maximal response. Usually IC50 stands for the concentration that inhibits the measured activity by half. In general, AC50 refers to the midpoint of the concentration-response curve, whichever way the signal moves.
